Literature values as cited in patent US6372198B1, “Dentifrice for the mineralization and remineralization of teeth” (priority 2000, dated 2002).

System: periodontal disease
Conditions: oral administration (pills, capsules, powders); certain clinical studies

In the case of COC1=C(OC)C(=O)C(C/C=C(\C)CC/C=C(\C)CC/C=C(\C)CC/C=C(\C)CC/C=C(\C)CC/C=C(\C)CC/C=C(\C)CC/C=C(\C)CC/C=C(\C)CCC=C(C)C)=C(C)C1=O [coenzyme Q10], the “symptoms of periodontal disease, including inflammation, swelling, and bleeding of the gum tissues” value is listed as “alleviated the symptoms of periodontal disease”.
